Patent US11427567B2, “Imidazolyl pyrimidinylamine compounds as CDK2 inhibitors” (Incyte Corporation, priority 2019, dated 2022)

The compounds below were run against CDK2/Cyclin E1 (Homo sapiens (Human), UniProt P24941) (assay: CDK2/Cyclin E1 HTRF enzyme activity assay (Example A)). Details: 1 mM ATP.
Format: biochemical
Experimental: Assays were conducted in white 384-well polystyrene plates in a final reaction volume of 8 μL. […] HTRF signals were read after 1 hour at room temperature on a PHERAstar FS plate reader (BMG Labtech). Data was analyzed with IDBS XLFit and GraphPad Prism 5.0 software using a three or four parameter dose response curve to determine IC50 for each compound.

IC50, ≤ 50 nM:
CCNCc1cc(F)c(-n2cnc(-c3nc(N[C@@H]4CCN(S(C)(=O)=O)C[C@H]4F)ncc3C(F)(F)F)c2)c(F)c1 [Example 390, 4-(1-(4-((Ethylamino)methyl)-2,6-difluorophenyl)-1H-imidazol-4-yl)-N-((3R,4R)-3-fluoro-1-(methylsulfonyl)piperidin-4-yl)-5-(trifluoromethyl)pyrimidin-2-amine]
Cc1nc(-c2nc(NC3CCN(S(C)(=O)=O)CC3)ncc2C(F)(F)F)cn1-c1ccc(CN2CCC2)cc1F [Example 281, 4-(1-(4-(Azetidin-1-ylmethyl)-2-fluorophenyl)-2-methyl-1H-imidazol-4-yl)-N-(1-(methylsulfonyl)piperidin-4-yl)-5-(trifluoromethyl)pyrimidin-2-amine]
CC(C)(O)Cn1cnc(-c2nc(NC3CCN(S(C)(=O)=O)CC3)ncc2C(F)(F)F)c1 [Example 22, 2-Methyl-1-(4-(2-((1-(methylsulfonyl)piperidin-4-yl)amino)-5-(trifluoromethyl)pyrimidin-4-yl)-1H-imidazol-1-yl)propan-2-ol]
CNC(C)c1ccc(-n2cnc(-c3nc(NC4CCN(S(C)(=O)=O)CC4)ncc3C(F)(F)F)c2)c(Cl)c1 (single isomer, unassigned) [Example 275, 4-(1-(2-Chloro-4-(1-(methylamino)ethyl)phenyl)-1H-imidazol-4-yl)-N-(1-(methylsulfonyl)piperidin-4-yl)-5-(trifluoromethyl)pyrimidin-2-amine]
CN1CCN(Cc2ccc(-n3cnc(-c4nc(NC5CCN(S(C)(=O)=O)CC5)ncc4C(F)(F)F)c3)c(Cl)c2)CC1 [Example 209, 4-(1-(2-Chloro-4-((4-methylpiperazin-1-yl)methyl)phenyl)-1H-imidazol-4-yl)-N-(1-(methylsulfonyl)-piperidin-4-yl)-5-(trifluoromethyl)-pyrimidin-2-amine]
C[C@@]1(O)CCN(Cc2cccc(-n3cnc(-c4nc(NC5CCN(S(C)(=O)=O)CC5)ncc4C(F)(F)F)c3)c2Cl)C1 [Example 363, (R)-1-(2-Chloro-3-(4-(2-((1-(methylsulfonyl)piperidin-4-yl)amino)-5-(trifluoromethyl)pyrimi-din-4-yl)-1H-imidazol-1-yl)benzyl)-3-methylpyrrolidin-3-ol]
CS(=O)(=O)N1CCC(Nc2ncc(C(F)(F)F)c(-c3cn(-c4cccc(F)c4C#N)cn3)n2)CC1 [Example 56, 2-Fluoro-6-(4-(2-((1-(methylsulfonyl)piperidin-4-yl)amino)-5-(trifluoromethyl)pyrimidin-4-yl)-1H-imidazol-1-yl)benzonitrile]
C[C@@H]1CN(S(C)(=O)=O)CC[C@@H]1Nc1ncc(C(F)(F)F)c(-c2cn(-c3ccc(CNCC#N)cc3Cl)cn2)n1 [Example 217, 2-((3-Chloro-4-(4-(2-(((3R,4S)-3-methyl-1-(methylsulfonyl)-piperidin-4-yl)amino)-5-(trifluoromethyl)-pyrimidin-4-yl)-1H-imidazol-1-yl)benzyl)-amino)acetonitrile]
CS(=O)(=O)N1CCC(Nc2ncc(C(F)(F)F)c(-c3cn(-c4ccc(CNCC(F)(F)F)cc4Cl)cn3)n2)CC1 [Example 188, 4-(1-(2-Chloro-4-(((2,2,2-trifluoroethyl)-amino)methyl)phenyl)-1H-imidazol-4-yl)-N-(1-(methylsulfonyl)-piperidin-4-yl)-5-(trifluoromethyl)-pyrimidin-2-amine]
CS(=O)(=O)N1CCC(Nc2ncc(C(F)(F)F)c(-c3cn(-c4c(F)cc(CNC5CC5)cc4F)cn3)n2)CC1 [Example 347, 4-(1-(4-((Cyclopropylamino)methyl)-2,6-difluorophenyl)-1H-imidazol-4-yl)-N-(1-(methylsulfonyl)piperidin-4-yl)-5-(trifluoromethyl)pyrimidin-2-amine]
CS(=O)(=O)N1CCC(Nc2ncc(C(F)(F)F)c(-c3cn(-c4cccc(CNC5CCOCC5)c4Cl)cn3)n2)CC1 [Example 368, 4-(1-(2-Chloro-3-(((tetrahydro-2H-pyran-4-yl)amino)methyl)phenyl)-1H-imidazol-4-yl)-N-(1-(methylsulfonyl)piperidin-4-yl)-5-(trifluoromethyl)pyrimi-din-2-amine]
Cc1c(-n2cnc(-c3nc(N[C@H]4CCN(S(C)(=O)=O)C[C@H]4F)ncc3C(F)(F)F)c2)ccnc1C#N [Example 302, 4-(4-(2-(((3R,4S)-3-Fluoro-1-(methylsulfonyl)piperidin-4-yl)amino)-5-(trifluoromethyl)pyrimidin-4-yl)-1H-imidazol-1-yl)-3-methylpicolinonitrile]
CCS(=O)(=O)N1CCC(Nc2ncc(C(F)(F)F)c(-c3cn(-c4cccnc4C#N)cn3)n2)CC1 [Example 89, 3-(4-(2-((1-(Ethylsulfonyl)piperidin-4-yl)amino)-5-(trifluoromethyl)pyrimidin-4-yl)-1H-imidazol-1-yl)picolinonitrile]
[2H]C([2H])([2H])N(Cc1ccc(-n2cc(-c3nc(NC4CCN(S(C)(=O)=O)CC4)ncc3C(F)(F)F)nc2C)c(F)c1)C([2H])([2H])[2H] [Example 280, 4-(1-(4-((Bis(methyl-d)amino)methyl)-2-fluorophenyl)-2-methyl-1H-imidazol-4-yl)-N-(1-(methylsulfonyl)piperidin-4-yl)-5-(trifluoromethyl)pyrimidin-2-amine]
CS(=O)(=O)N1CCC(Nc2ncc(C(F)(F)F)c(-c3cn(-c4cccc(CNC5CC5)c4Cl)cn3)n2)CC1 [Example 81, 4-(1-(2-Chloro-3-((cyclopropylamino)methyl)phenyl)-1H-imidazol-4-yl)-N-(1-(methylsulfonyl)piperidin-4-yl)-5-(trifluoromethyl)pyrimidin-2-amine]
CCN(CC)C1CCN(c2ccc(-n3cc(-c4nc(NC5CCN(S(C)(=O)=O)CC5)ncc4C(F)(F)F)nc3C)c(F)c2)CC1 [Example 413, 4-(1-(4-(4-(Diethylamino)piperidin-1-yl)-2-fluorophenyl)-2-methyl-1H-imidazol-4-yl)-N-(1-(methylsulfonyl)piperidin-4-yl)-5-(trifluoromethyl)pyrimidin-2-amine]
Cn1cc(-c2nc(NC3CCN(S(C)(=O)=O)CC3)ncc2C(F)(F)F)nc1CC(C)(C)O [Example 18, 2-Methyl-1-(1-methyl-4-(2-((1-(methylsulfonyl)piperidin-4-yl)amino)-5-(trifluoromethyl)pyrimidin-4-yl)-1H-imidazol-2-yl)propan-2-ol]
Cn1ncnc1-c1ccc(-n2cnc(-c3nc(NC4CCN(S(C)(=O)=O)CC4)ncc3C(F)(F)F)c2)c(Cl)c1 [Example 121, 4-(1-(2-Chloro-4-(1-methyl-1H-1,2,4-triazol-5-yl)phenyl)-1H-imidazol-4-yl)-N-(1-(methylsulfonyl)-piperidin-4-yl)-5-(trifluoromethyl)-pyrimidin-2-amine]
Cc1nc(-c2nc(NC3CCN(S(C)(=O)=O)CC3)ncc2C#N)cn1-c1ccc(CN(C)C)cc1Cl [Example 288, 4-(1-(2-Chloro-4-((dimethylamino)methyl)phenyl)-2-methyl-1H-imidazol-4-yl)-2-((1-(methylsulfonyl)piperidin-4-yl)amino)pyrimidine-5-carbonitrile]
CS(=O)(=O)N1CCC(Nc2ncc(C(F)(F)F)c(-c3cn(-c4ccc(CNCC#N)cc4Cl)cn3)n2)CC1 [Example 187, 2-((3-Chloro-4-(4-(2-((1-(methylsulfonyl)-piperidin-4-yl)amino)-5-(trifluoromethyl)-pyrimidin-4-yl)-1H-imidazol-1-yl)benzyl)-amino)acetonitrile]
Cn1cc(-c2nc(NC3CCN(S(C)(=O)=O)CC3)ncc2C(F)(F)F)nc1CO [Example 17, (1-Methyl-4-(2-((1-(methylsulfonyl)piperidin-4-yl)amino)-5-(trifluoromethyl)pyrimidin-4-yl)-1H-imidazol-2-yl)methanol]
Cc1cccc(-n2cnc(-c3nc(NC4CCN(S(C)(=O)=O)CC4)ncc3C(F)(F)F)c2)c1C#N [Example 61, 2-Methyl-6-(4-(2-((1-(methylsulfonyl)piperidin-4-yl)amino)-5-(trifluoromethyl)pyrimidin-4-yl)-1H-imidazol-1-yl)benzonitrile]
Cn1c(Cl)nc(-c2nc(NC3CCN(S(C)(=O)=O)CC3)ncc2C(F)(F)F)c1Cl [Example 12, 4-(2,5-Dichloro-1-methyl-1H-imidazol-4-yl)-N-(1-(methylsulfonyl)piperidin-4-yl)-5-(trifluoromethyl)pyrimidin-2-amine]
CNCc1cc(F)c(-n2cnc(-c3nc(NC4CCN(S(C)(=O)=O)CC4)ncc3C(F)(F)F)c2)c(F)c1 [Example 350, 4-(1-(2,6-Difluoro-4-((methylamino)methyl)phenyl)-1H-imidazol-4-yl)-N-(1-(methylsulfonyl)piperidin-4-yl)-5-(trifluoromethyl)pyrimidin-2-amine]
CNCc1ccc(-n2cnc(-c3nc(NC4CCN(S(C)(=O)=O)CC4)ncc3C#N)c2)c(Cl)c1 [Example 226, 4-(1-(2-Chloro-4-((methylamino)-methyl)phenyl)-1H-imidazol-4-yl)-2-((1-(methylsulfonyl)-piperidin-4-yl)-amino)pyrimidine-5-carbonitrile]
CS(=O)(=O)N1CCC(Nc2ncc(C(F)(F)F)c(-c3cn(-c4cccc(CN5CCC5)c4C(F)(F)F)cn3)n2)CC1 [Example 380, 4-(1-(3-(Azetidin-1-ylmethyl)-2-(trifluoromethyl)phenyl)-1H-imidazol-4-yl)-N-(1-(methylsulfonyl)piperidin-4-yl)-5-(trifluoromethyl)pyrimi-din-2-amine]
